Experiments:
USP7-NTD = assay: Fluorescence polarization, USP7-NTD; assay type: binding, human; details: FITC peptide 40 nM, protein up to 200 μM
Procedure: (§1) USP7 proteins were titrated (0 to 200 μM) with N-terminally labeled FITC-ICP0, FITC-GMPS or FITC-UHRF1 peptides (synthesized by CanPeptide, 40 nM) in 0.01% Triton X-100, 150 mM NaCl, 20 mM Tris pH 7.5. Polarized emission of FITC-ICP0 or FITC-GMPS or FITC-UHRF1 was measured with a Synergy H4 Hybrid Multi-Mode Microplate Reader (BioTek) with the excitation wavelength set at 485 nm and the emission wavelength set at 528 nm. The competition binding assay was performed with a fixed USP7-CTD concentration (8 μM), 40nM FITC-UHRF1 and increasing concentrations of unlabeled ICP0 (0 to 2500 μM). The polarization data were plotted and analyzed using GraphPad Prism version 5.0 to calculate dissociation (KD) and inhibition (Ki) constants. These assays were repeated at least 3 times and used to calculate the average and standard deviation.

USP7-CTD = target: T1, USP7-CTD (Homo sapiens, UniProt Q93009); assay: Competition binding assay (fluorescence polarization), FITC-UHRF1 displacement; details: USP7-CTD 8 μM, FITC-UHRF1 40 nM, unlabeled ICP0 0 to 2500 μM
T1 construct: USP7-CTD (535–1102); His tag (inferred from nickel-NTA purification; vector p15TV-L); made in house; host or cells: E. coli BL21(DE3)mgk
T1 sequence (Q93009 535-1102): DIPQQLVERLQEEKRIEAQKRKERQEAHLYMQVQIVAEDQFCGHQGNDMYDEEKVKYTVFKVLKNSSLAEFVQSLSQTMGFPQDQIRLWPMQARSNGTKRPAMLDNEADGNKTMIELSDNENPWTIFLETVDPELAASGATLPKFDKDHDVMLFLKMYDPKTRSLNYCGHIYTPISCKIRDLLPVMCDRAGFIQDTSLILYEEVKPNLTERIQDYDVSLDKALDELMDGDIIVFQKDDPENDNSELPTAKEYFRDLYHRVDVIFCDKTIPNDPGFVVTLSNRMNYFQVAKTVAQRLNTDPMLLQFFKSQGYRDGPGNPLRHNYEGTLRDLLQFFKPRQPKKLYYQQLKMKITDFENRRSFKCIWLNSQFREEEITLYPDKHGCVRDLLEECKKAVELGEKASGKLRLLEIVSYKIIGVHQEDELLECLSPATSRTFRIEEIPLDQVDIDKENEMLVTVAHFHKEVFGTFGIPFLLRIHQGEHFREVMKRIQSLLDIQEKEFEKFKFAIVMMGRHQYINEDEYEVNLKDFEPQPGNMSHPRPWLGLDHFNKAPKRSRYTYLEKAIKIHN
Procedure: Given the importance of the KxxxK motif in ICP0 and GMPS for USP7-CTD binding, we examined the UHRF1 sequence for such a motif and identified ^642[…]^649 (Fig 4A). […] The saturation curve is shown in S3 Fig. A competitive binding assay was used to establish whether the UHRF1 and ICP0 peptides were competing for the same binding site on Ubl2. This assay was performed by measuring the fluorescence polarization with increasing amounts of unlabeled ICP0 while keeping both USP7-CTD and FITC-UHRF1 constant. […] This competition was confirmed by the competition binding experiment shown in S3 Fig.
as §1, with “These assays were repeated at least 3 times and used to calculate the average and standard deviation.” left out

USP7 Ubl345 = assay: Fluorescence polarization, Ubl345; assay type: binding, human; details: FITC peptide 40 nM, protein up to 200 μM
Procedure: as §1

[1] = tested on: myc-tagged D762R/D764R (MRGR) USP7; assay: Co-immunoprecipitation with myc-tagged D762R/D764R (MRGR) USP7 from 293T cells; assay type: cell-based, human; details: anti-myc IP, Western blot, Fig 5
Procedure: (§2) 293T cells were grown in Dulbecco’s modified Eagle’s medium (DMEM) (Gibco) with 10% fetal calf serum. 293T cells at 70% confluence in a 10-cm-diameter dish were transfected with 10 μg pCANmycUSP7 expressing WT USP7 or D762R/D764R (MRGR) USP7 or with pcDNA3.1 (negative control), in each case using 20 μl PolyJet (SignaGen Laboratories) transfection reagent. Cells were transferred to a 15-cm-diameter dish 24 h post-transfection and harvested 48 h post-transfection. For experiments on USP7-ICP0 interactions, 293T cells were co-transfected with 1 μg pCANmycUSP7 expressing WT or D762R/D764R (MRGR) USP7 and either 1 μg pCI-110 ICP0 or 1 μg pcDNA3.1. For controls lacking USP7, 1 μg pCI-110 ICP0 was co-transfected with 1 μg pcDNA3.1. In each case 4 μl PolyJet (SignaGen Laboratories) transfection reagent was used.
Protein samples were subjected to SDS-PAGE and transferred to nitrocellulose. Membranes were blocked in 5% skim milk in Tris-buffered saline with 1% Tween (TBS-T) and then incubated with antibodies against ICP0 (H1A027 from Virusys Corporation; 1:5000 dilution), myc (sc-40 from Santa Cruz Biotechnology; 1:5000 dilution), NP95/UHRF1 (A301-470A from Bethyl Laboratories; 1:1000 dilution), GMPS (rabbit serum raised against full-length GMPS [17]; 1:5000 dilution) and actin (MA5-15739 from Pierce; 1:20,000 dilution). After washing, blots were probed with goat anti-mouse or goat anti-rabbit peroxidase (Santa Cruz Biotechnology; 1:5000 dilution) and developed using chemiluminescence reagents (Santa Cruz biotechnology).
293T cells transfected as described above were washed in phosphate-buffered saline (PBS) and lysed on ice for 45 min in a 4x volume of RIPA buffer (50 mM Tris-HCl [pH 8], 150 mM NaCl, 0.1% sodium deoxycholate, 0.5% NP-40) with complete protease inhibitors (Sigma P8340), followed by centrifugation. 1 mg of each clarified lysate was incubated with 1 μg of anti-myc antibody for 1h, followed by incubation with 30 μl of A/G PLUS agarose resin (Santa Cruz Biotechnology) for 2 h at 4°C with end-over-end rotation. The resin was harvested by centrifugation, washed in RIPA buffer, and then boiled in SDS loading buffer. Immunoprecipitated proteins were separated by SDS-PAGE and analyzed by Western blotting, as described above.

293T cells = assay: ICP0 input levels with and without USP7, Western blot, 293T cells; assay type: cell-based; details: input levels of ICP0 with and without USP7, Fig 5A
Procedure: as §2
Protein samples were subjected to SDS-PAGE and transferred to nitrocellulose. […]
293T cells transfected as described above were washed in phosphate-buffered saline (PBS) and lysed on ice for 45 min in a 4x volume of RIPA buffer (50 mM Tris-HCl [pH 8], 150 mM NaCl, 0.1% sodium deoxycholate, 0.5% NP-40) with complete protease inhibitors (Sigma P8340), followed by centrifugation. […] Immunoprecipitated proteins were separated by SDS-PAGE and analyzed by Western blotting, as described above.

Row | Compound | polarization with USP7-NTD (USP7-NTD) | competition with UHRF1 peptide for binding to Ubl2 (USP7-CTD) | polarization with Ubl345 (USP7 Ubl345) | recovery with D762R/D764R USP7 (co-IP), in words [1] | effect of WT USP7 and D762R/D764R mutant on ICP0 level (293T cells)
1 | C[C@H](NC(=O)[C@H](CS)NC(=O)[C@H](CCCCN)NC(=O)[C@H](CCCNC(=N)N)NC(=O)[C@@H]1CCCN1C(=O)CNC(=O)[C@H](CCCNC(=N)N)NC(=O)[C@@H]1CCCN1)C(=O)N[C@@H](CCCNC(=N)N)C(=O)N[C@@H](CCCCN)C(=O)N[C@H](C(=O)N[C@@H](CCCNC(=N)N)C(=O)N[C@@H](Cc1c[nH]cn1)C(=O)O)[C@@H](C)O [ICP0 peptide] | did not show any polarization | readily competes with the UHRF1 peptide for binding to Ubl2 | did not show any polarization | – | –
2 | ICP0: Herpes simplex virus-1 immediate-early protein ICP0, expressed in 293T cells | – | – | – | decreased (2-fold in multiple experiments) but not abrogated | stabilizing effect on ICP0

Source: article PMC4457826 (PLoS Pathogens, 2015)
